Consider six molecules from ChEMBL document CHEMBL4825715, “Novel METTL3 Modulators for Treating Acute Myeloid Leukemia (AML)” (ACS Med Chem Lett, 2021).

Assay [1] deals with T1, N6-adenosine-methyltransferase catalytic subunit (Homo sapiens, UniProt Q86U44). The assay is described as follows: Inhibition of METTL3 (unknown origin) using 3' biotinylated RNA (UCUGGACUAAA) and 3H-SAM as a substrate preincubated for 5 mins followed by substrate addition incubated for 30 mins by scintillation counting method.
For assay [2], the target named is T1, N6-adenosine-methyltransferase catalytic subunit. Nature of the assay: Inhibition of METTL3-mediated m6A methylation in human […] cells assessed as reduction in mRNA level measured after 24 hrs by LC-MS/MS analysis. The class given is cell-based, MOLM-13.

The structures appear in SMILES notation.

T1 sequence (Q86U44 whole entry): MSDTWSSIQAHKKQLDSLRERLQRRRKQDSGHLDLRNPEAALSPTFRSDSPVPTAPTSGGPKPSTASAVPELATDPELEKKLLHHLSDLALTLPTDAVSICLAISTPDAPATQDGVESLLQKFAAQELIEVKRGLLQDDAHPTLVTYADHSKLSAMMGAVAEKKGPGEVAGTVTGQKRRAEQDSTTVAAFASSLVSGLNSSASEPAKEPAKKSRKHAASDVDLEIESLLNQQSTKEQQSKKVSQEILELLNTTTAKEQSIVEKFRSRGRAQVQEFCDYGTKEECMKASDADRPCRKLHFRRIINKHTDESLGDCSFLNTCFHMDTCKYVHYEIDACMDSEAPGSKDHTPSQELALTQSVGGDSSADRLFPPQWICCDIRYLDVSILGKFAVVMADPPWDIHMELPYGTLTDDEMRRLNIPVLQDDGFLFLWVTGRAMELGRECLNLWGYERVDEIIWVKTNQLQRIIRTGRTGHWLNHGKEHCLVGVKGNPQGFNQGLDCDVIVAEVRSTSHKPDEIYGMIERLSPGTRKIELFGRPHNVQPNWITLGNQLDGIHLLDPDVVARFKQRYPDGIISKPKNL

For `CCNc1ccc2ccc(OC[C@H]3O[C@@H](n4cc(C5CCCC5)c5c(N)ncnc54)[C@H](O)[C@@H]3O)cc2n1`, the IC50 in assay [1] was less than 10 nM; in assay [2] it was less than 1000 nM.

`Nc1ncnc2c1c([C@@H]1CCCO1)cn2[C@@H]1O[C@H](COc2ccc3ccc(N4CCC4)nc3c2)[C@@H](O)[C@@H]1F`: the IC50 is less than 10 nM in assay [1] and less than 1000 nM in assay [2].

On to `CNc1ccc2ccc(OC[C@H]3O[C@@H](n4cc(-c5ccn(C)n5)c5c(N)ncnc54)[C@H](O)[C@@H]3O)cc2n1`, for which the IC50 was less than 10 nM in assay [1] and less than 1000 nM in assay [2].

Take `Cc1coc(-c2cn([C@@H]3O[C@H](COc4ccc5ccc(N6CCC6)nc5c4)[C@@H](O)[C@@H]3F)c3ncnc(N)c23)n1`: the IC50 in assay [1] was less than 10 nM; in assay [2] it was less than 1000 nM.

On to `Nc1ncnc2c1c(-n1cccn1)cn2[C@@H]1O[C@H](COc2ccc3ccc(N4CCC4)nc3c2)[C@@H](O)[C@@H]1F`, for which the IC50 in assay [1] is less than 10 nM; in assay [2], less than 1000 nM.

For the molecule `CNc1ccc2ccc(OC[C@H]3O[C@@H](n4cc(-c5ccc(C)o5)c5c(N)ncnc54)[C@@H](F)[C@@H]3O)cc2n1`, the IC50 in assay [1] is less than 10 nM; in assay [2], less than 1000 nM.

As usually defined, the IC50 is the point on the concentration scale where inhibition reaches its midpoint.
